The source of these data is patent publication US20240228506A1, “RIPK1 INHIBITORS AND METHODS OF USE” (Merck Sharp & Dohme LLC, priority 2021, published 2024).

pIC50: −log10 of the molar value.

The target of this assay is T1, GST-RIPK1 (recombinant GST-RIPK1 kinase domain (residues 1-327)) (Homo sapiens, UniProt Q13546).
T1 construct: recombinant GST-RIPK1 kinase domain (residues 1-327) enzyme; made in house; host or cells: baculovirus-transfected Sf21 insect cells
T1 sequence (Q13546 1-327): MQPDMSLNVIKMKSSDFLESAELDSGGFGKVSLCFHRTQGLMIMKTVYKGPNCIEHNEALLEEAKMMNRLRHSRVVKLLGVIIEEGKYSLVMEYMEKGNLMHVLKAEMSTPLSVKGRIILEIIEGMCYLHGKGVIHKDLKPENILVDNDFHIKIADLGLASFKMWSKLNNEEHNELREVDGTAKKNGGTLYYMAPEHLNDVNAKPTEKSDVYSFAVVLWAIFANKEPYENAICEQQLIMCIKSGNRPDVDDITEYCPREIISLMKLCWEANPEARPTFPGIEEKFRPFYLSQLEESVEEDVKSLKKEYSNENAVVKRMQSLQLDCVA
The assay is described as follows: RIPK1-ADP-Glo enzymatic assay. The class given is biochemical. Particulars: 25 nM GST-RIPK1, 300 μM ATP, 3 μM dephosphorylated-MBP; 30 minutes pre-incubation, 150 minutes reaction; ten-point titration. The gist of the method:
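Ten-point 1:3 titrations from 100000 nM, 1% DMSO, were preincubated 30 min with 25 nM GST-RIPK1 (1-327) before starting with 300 μM ATP plus 3 μM dephosphorylated MBP; 150 min reaction. ADP-Glo luminescence measured ATP-to-ADP conversion; EC50 by four-parameter sigmoidal regression.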
For orientation: ADP-Glo turns the ADP formed in a reaction into a luminescent signal.

Regarding `CC(C)(C(=O)N1C[C@@H]2C[C@H]1c1cncc(C#CCCC(F)(F)F)c1O2)C(F)F` [Compound 2-111, 3,3-difluoro-2,2-dimethyl-1-((2S,5S)-9-(5,5,5-trifluoropent-1-yn-1-yl)-2,3-dihydro-2,5-methanopyrido[3,4-f][1,4]oxazepin-4(5H)-yl)propan-1-one], the pIC50 was 6.58.

On to `CC(C)(C(=O)N1C[C@@H]2C[C@H]1c1cncc(C#Cc3ccc(C#N)nc3)c1O2)C(F)F` [Compound 2-87, 5-(((2S,5S)-4-(3,3-difluoro-2,2-dimethylpropanoyl)-2,3,4,5-tetrahydro-2,5-methanopyrido[3,4-f][1,4]oxazepin-9-yl)ethynyl)picolinonitrile], for which the negative-log IC50 (pIC50) was 7.49.

For `O=C(N1C[C@@H]2C[C@H]1c1cncc(Cl)c1O2)C12CCC(C(F)(F)F)(CC1)C2` [Compound 2-4, [(2S,5S)-9-chloro-2,3-dihydro-2,5-methanopyrido[3,4-f][1,4]oxazepin-4(5H)-yl][4-(trifluoromethyl)bicyclo [2.2.1]heptan-1-yl]methanone], the pIC50 is 8.00.

Take `COc1cnc(N2CCC(F)(C(=O)N3C[C@@H]4C[C@H]3c3cncc(C#N)c3O4)CC2)nc1` [Compound 1-80, (2S,5S)-4-(4-fluoro-1-(5-methoxypyrimidin-2-yl)piperidine-4-carbonyl)-2,3,4,5-tetrahydro-2,5-methanopyrido[3,4-f][1,4]oxazepine-9-carbonitrile]: the pIC50 was 6.48.

Consider `CC(C)(C(=O)N1C[C@@H]2C[C@H]1c1cncc(C#Cc3ccnc(N)c3)c1O2)C(F)F` [Compound 2-39, 1-((2S,5S)-9-((2-aminopyridin-4-yl)ethynyl)-2,3-dihydro-2,5-methanopyrido[3,4-f][1,4]oxazepin-4(5H)-yl)-3,3-difluoro-2,2-dimethylpropan-1-one], for which the pIC50 was 7.62.

In the case of `Cc1ccc(C#Cc2cncc3c2O[C@H]2C[C@@H]3N(C(=O)C34CCC(F)(CC3)C4)C2)cc1` [Compound 2-103, (4-fluorobicyclo[2.2.1]heptan-1-yl)((2S,5S)-9-(p-tolylethynyl)-2,3-dihydro-2,5-methanopyrido[3,4-f][1,4]oxazepin-4(5H)-yl)methanone], the pIC50 was 7.68.

Consider `CC(C)(C)C(=O)N1C[C@@H]2C[C@H]1c1cncc(C#CC(O)(c3ccccc3)C(F)(F)F)c1O2` (stereo partly drawn) [Compound 2-36, 2,2-dimethyl-1-((2S,5S)-9-(4,4,4-trifluoro-3-hydroxy-3-phenylbut-1-yn-1-yl)-2,3-dihydro-2,5-methanopyrido[3,4-f][1,4]oxazepin-4(5H)-yl)propan-1-one], for which the pIC50 is 6.28.

`N#Cc1cncc2c1O[C@H]1C[C@@H]2N(C(=O)C2(F)CCN(C(=O)c3ccccc3)CC2)C1` [Compound 1-54, (2S,5S)-4-(1-benzoyl-4-fluoropiperidine-4-carbonyl)-2,3,4,5-tetrahydro-2,5-methanopyrido[3,4-f][1,4]oxazepine-9-carbonitrile]: the negative logarithm of the IC50 (pIC50) was 6.94.

In the case of `O=C(N1C[C@@H]2C[C@H]1c1cncc(C#Cc3ccccc3)c1O2)C12CCC(C(F)(F)F)(CC1)C2` [Compound 2-64, ((2S,5S)-9-(phenylethynyl)-2,3-dihydro-2,5-methanopyrido[3,4-f][1,4]oxazepin-4(5H)-yl)(4-(trifluoromethyl)bicyclo [2.2.1]heptan-1-yl)methanone], the pIC50 was 7.80.

In the case of `CC(C)(C)c1ncc(C#Cc2cncc3c2O[C@H]2C[C@@H]3N(C(=O)C(C)(C)C(F)F)C2)cn1` [Compound 2-73, 1-((2S,5S)-9-((2-(tert-butyl)pyrimidin-5-yl)ethynyl)-2,3-dihydro-2,5-methanopyrido[3,4-f][1,4]oxazepin-4(5H)-yl)-3,3-difluoro-2,2-dimethylpropan-1-one], the pIC50 is 7.72.

`N#Cc1cncc2c1O[C@H]1C[C@@H]2N(C(=O)C2(F)CCN(c3cc(C4CC4)ncn3)CC2)C1` [Compound 1-71, (2S,5S)-4-(1-(6-cyclopropylpyrimidin-4-yl)-4-fluoropiperidine-4-carbonyl)-2,3,4,5-tetrahydro-2,5-methanopyrido[3,4-f][1,4]oxazepine-9-carbonitrile]: the pIC50 is 6.63.

As to `N#CCc1cccc(C#Cc2cncc3c2O[C@H]2C[C@@H]3N(C(=O)C34CCC(F)(CC3)C4)C2)c1` [Compound 2-99, 2-(3-(((2S,5S)-4-(4-fluorobicyclo[2.2.1]heptane-1-carbonyl)-2,3,4,5-tetrahydro-2,5-methanopyrido[3,4-f][1,4]oxazepin-9-yl)ethynyl)phenyl) acetonitrile], the pIC50 is 8.00.

`CC(C)(C(=O)N1C[C@@H]2C[C@H]1c1cncc(C#Cc3ccc4nccnc4c3)c1O2)C(F)F` [Compound 2-34, 3,3-Difluoro-2,2-dimethyl-1-((2S,5S)-9-(quinoxalin-6-ylethynyl)-2,3-dihydro-2,5-methanopyrido[3,4-f][1,4]oxazepin-4(5H)-yl)propan-1-one]: the pIC50 was 7.82.

For the compound `N#Cc1cncc2c1O[C@H]1C[C@@H]2N(C(=O)C2(C(F)F)CCCO2)C1` (stereo partly drawn) [Compound 1-60, (2S,5S)-4-(2-(difluoromethyl)tetrahydro-furan-2-carbonyl)-2,3,4,5-tetrahydro-2,5-methanopyrido[3,4-f][1,4]oxazepine-9-carbonitrile], the negative-log IC50 (pIC50) was 6.64.

On to `CC(C)(CC#N)C(=O)N1C[C@@H]2C[C@H]1c1cncc(C#N)c1S2` [Compound 4-4, (2S,5S)-4-(3-cyano-2,2-dimethylpropanoyl)-2,3,4,5-tetrahydro-2,5-methanopyrido[3,4-f][1,4]thiazepine-9-carbonitrile], for which the negative logarithm of the IC50 (pIC50) was 7.38.

For the compound `Cc1ccc(C#Cc2cncc3c2O[C@H]2C[C@@H]3N(C(=O)C34CCC(C(F)(F)F)(CC3)C4)C2)cn1` [Compound 2-62], the pIC50 is 7.77.

Take `CC(C(=O)N1C[C@@H]2C[C@H]1c1cncc(C#N)c1O2)(C(F)F)C1CC1` (single isomer, unassigned) [Compound 1-89, (2S,5S)-4-(2-(R or S)-cyclopropyl-3,3-difluoro-2-methylpropanoyl)-2,3,4,5-tetrahydro-2,5-methanopyrido[3,4-f][1,4]oxazepine-9-carbonitrile]: the negative logarithm of the IC50 (pIC50) was 7.37.

`CC(C)(C(=O)N1C[C@@H]2C[C@H]1c1cncc(C#N)c1O2)C1CCC1` [Compound 1-25, (2S,5S)-4-(2-cyclobutyl-2-methylpropanoyl)-2,3,4,5-tetrahydro-2,5-methanopyrido[3,4-f][1,4]oxazepine-9-carbonitrile]: the pIC50 was 6.92.

As for `CC(C)(C(=O)N1C[C@@H]2C[C@H]1c1cncc(C#Cc3ccc(F)cc3F)c1O2)C(F)F` [Compound 2-43, 1-((2S,5S)-9-((2,4-difluorophenyl)ethynyl)-2,3-dihydro-2,5-methanopyrido[3,4-f][1,4]oxazepin-4(5H)-yl)-3,3-difluoro-2,2-dimethylpropan-1-one], the pIC50 is 7.32.

Regarding `CC(C)(C(=O)N1C[C@@H]2C[C@H]1c1cncc(C#CCC3CCOCC3)c1O2)C(F)F` [Compound 2-107, 3,3-difluoro-2,2-dimethyl-1-((2S,5S)-9-(3-(tetrahydro-2H-pyran-4-yl)prop-1-yn-1-yl)-2,3-dihydro-2,5-methanopyrido[3,4-f][1,4]oxazepin-4(5H)-yl)propan-1-one], the negative-log IC50 (pIC50) is 6.82.

In the case of `CC(F)(F)C(C)(C)C(=O)N1C[C@@H]2C[C@H]1c1cncc(C#N)c1O2` [Compound 1-10, (2S,5S)-4-(3,3-difluoro-2,2-dimethylbutanoyl)-2,3,4,5-tetrahydro-2,5-methanopyrido[3,4-f][1,4]oxazepine-9-carbonitrile], the pIC50 was 7.68.

Broadly, the pIC50 is −log10 of the IC50, conventionally taken in molar units.
